The values that follow are results of earlier work, collected in patent US20060275504A1, “Methods and compositions for augmenting cancer chemotherapeutic agents” (TTY BIOPHARM COMPANY LIMITED, priority 2005, published 2006).

Turning to arsenic trioxide, the “complete remission (CR) rate” value (intravenously 10 mg/d, patients with relapsed acute promyelocytic leukemia) is recorded as 90%.

With `O=C1O[C@H]([C@@H](O)CO)C(O)=C1O` [Ascorbic acid], the “concentration exhibiting cytotoxic activity” value is listed as 10^2-10^3 μM in the data set with MCF-7 (MCF-7, ascorbic acid alone) and 10^2-10^3 μM in the data set on MDA-MB-231 (MDA-MB-231, ascorbic acid alone). The “effect on cytotoxicity of DOX, DDP and TX” value with MCF-7 (MCF-7, ascorbic acid at non-cytotoxic (1 μM) and moderately cytotoxic (10^2 μM) concentration) was “improved the cytotoxicity of DOX, DDP and TX significantly”; in the data set on MDA-MB-231 (MDA-MB-231, ascorbic acid at non-cytotoxic (1 μM) and moderately cytotoxic (10^2 μM) concentration), “improved the cytotoxicity of DOX, DDP and TX significantly”.

Take `S1[As]2S[As]3S[As]2S[As]13` [As4S4, tetraarsenic tetraslfide]: the complete remission rates (arsenic-containing substances other than arsenic trioxide (Wang Z. Y. 2001)) is 84.9%.
